The structures appear in SMILES notation.

In the assay the test system is maximal (tonic hindlimb extension) electroshock seizures in male rats. The assay is described as follows: Maximal electroshock seizure (MEST) threshold test, rat model. The class given is in vivo, rats (Sprague Dawley). Conditions: 2 mg/kg p.o., suspension in methyl cellulose, one hour post dosing, statistically significant, percentage increase in CC50 compared to control. The protocol:
The maximal electroshock seizure (MEST) threshold test in rodents is particularly sensitive for detecting potential anticonvulsant properties ^1. In this model, anticonvulsant agents elevate the threshold to electrically-induced seizures whilst proconvulsants lower the seizure threshold.
Mice (naive male, Charles River, U.K. CD-1 strain, 25 - 30g) are randomly assigned to groups of 10 - 20 and dosed orally or intraperitoneally at a dose volume of 10 ml/kg with various doses of compound (0.3 - 300 mg/kg) or vehicle. Mice are then subjected at 30 or 60 min post dose to a single electroshock (0.1 sec, 50Hz, sine wave form) administered via corneal electrodes. The mean current and standard error required to induce a tonic seizure in 50% (CC50) of the mice in a particular treatment group is determined by the 'up and down' method of Dixon and Mood (1948)^2. Statistical comparisons between vehicle- and drug-treated groups are made using the method of Litchfield and Wilcoxon (1949)^3. […]
The threshold for maximal (tonic hindlimb extension) electroshock seizures in male rats (Sprague Dawley, 80 - 150g, 6 weeks old) was determined by a Hugo Sachs Electronik stimulator which delivered a constant current (0.3 sec duration; from 1-300mA in steps of 5-20mA). . […]
The percentage increase or decrease in CC50 for each group compared to the control is calculated. […]

`COc1ccc(C(=O)Nc2ccc3c(c2)C2CCCN2CC3)cc1C(F)(F)F` (racemic) [Example 3, (+/-)N-(1,2,3,5,6,10b-hexahydropyrrolo[2,1-a]isoquinolin-9-yl)-4-methoxy-3-trifluoromethylbenzamide]: the “increase in seizure threshold” value was 426%.

The record behind these values is patent EP1102769B1, “TRICYCLIC CARBOXAMIDES” (SmithKline Beecham plc, priority 1998, dated 2000).
